Measured values from patent publication US20260241043A1, “Carrier Peptide Fragment and Use Thereof” (TOAGOSEI CO., LTD., priority 2022, published 2026).
Primed or numbered codes have the meaning given here. FAM″ = C-terminal FAM dye

System: NSC-34 cells
Assay: Evaluation on cell membrane permeability by flow cytometry
Assay type: cell-based, mouse
Conditions: 10 μM additive, 0.5% DMSO, 20 hours incubation at 37° C., fluorescence detector FL2
Protocol: As the eukaryotic cells, NSC-34 cells (mouse motor neuron-like hybrid cell line) were used and the cell membrane permeability of the constructs 1 to 3 was analyzed. In Examples 1 to 3, the prepared samples 1 to 3 were used, respectively, and in Example 4, a FAM solution was used.
The NSC-34 cells were cultured in 10% fetal bovine serum (FBS)-containing Dulbecco's modified Eagle's medium (DMEM (Cat No. 044-29765, manufactured by FUJIFILM Wako Pure Chemical Corporation)), which is a normal culture medium.
The NSC-34 cells that adhered to a culture plate were cleaned with PBS and then, a 0.25%-trypsin/EDTA solution was added thereto, and incubation was performed for three minutes at 37° C. After the incubation, the aforementioned 10% FBS-containing DMEM was added to deactivate trypsin and then, five-minute centrifugal separation was performed at 150×g to precipitate the cells. After the supernatant generated by the centrifugal separation was removed, the 10% FBS-containing DMEM was added to the precipitate (cell pellet) to prepare a cell suspension of about 2× 10^5 cells/mL. The cell suspension was added by 1 mL to a well of a commercially available six-hole (well) plate (manufactured by AGC TECHNO GLASS Co., Ltd.) so as to seed the cell (about 2× 10^5 cells/well). In addition, the 2 mM sample solution 1 was diluted with the 10% FBS-containing DMEM to prepare the sample solution 1 in which the concentration of the sample 1 was 20 μM. […]
Regarding the obtained cells (cell pellet), the cell membrane permeability of the sample 1 was analyzed using a flow cytometer. […]
Using the aforementioned flow cytometer, gating based on forward scatter (FSC) and side scatter (SSC) was performed to set a gate about a cell group to be analyzed, and the fluorescence intensity was measured about the cell group in this gate. […] The fluorescence intensity was measured using a fluorescence detector FL2 of the flow cytometer (optimum detection wavelength around 543 nm) capable of detecting the fluorescence wavelength of FAM. […]

Substance | MFI (median fluorescence intensity)
Ac-RKKRNSKRLTRKK-FAM (Ac-RKKRNSKRLTRKK-{FAM″}) [Example 1, N-terminally acetylated peptide 1 (all L-form) with FAM fluorescent dye bonded to the C-terminus] | 14.6
Ac-rKKrNSKrLTrKK-FAM [Example 2] | 37.7
Ac-RkkRNSkRLTRkk-FAM [Example 3] | 27.3
